# Source: ChEMBL document CHEMBL3885861, “Open TG-GATES”
# Species on record: Rattus norvegicus
# Test: Open TG-GATES - Regimen: Daily Repeat
# Type: toxicity, organism-based, Sprague-Dawley
# Set-up: regimen Daily Repeat, gender Male, age 6 weeks
# Details: in vivo, po, 0 mg/kg, route gavage, dose level Control; for APTT / Bas / Eos / Fbg / Hb / Ht / Lym / MCH / MCHC / MCV / Mono / Neu / PT / Plat / RBC / Ret / WBC: tissue Blood; for KIDNEY_L / KIDNEY_R / KIDNEY_TOTAL: tissue Kidney; for LIVER: tissue Liver; for A/G / ALP / ALT / AST / BUN / CRE / Ca / Cl / DBIL / GLC / IP / K / LDH / Na / PL / RALB / TBIL / TC / TG / TP / gamma-GTP: tissue Plasma
smiles,measurement,setting,value
C[C@H]1O[C@H](O[C@H]2[C@H](O)[C@@H](O)[C@@H](O[C@H]3[C@H](O)[C@@H](O)C(O)O[C@@H]3CO)O[C@@H]2CO)[C@H](O)[C@@H](O)[C@@H]1N[C@H]1C=C(CO)[C@@H](O)[C@H](O)[C@H]1O (some centres not stated) [ACARBOSE],TERMINAL_BW,"72 h, time 3 day",228.3 g
same,APTT,"72 h, time 3 day",16.7 s
same,Bas,"72 h, time 3 day",0%
same,Eos,"72 h, time 3 day",1.2%
same,Fbg,"72 h, time 3 day",274.6 mg/dL
same,Hb,"72 h, time 3 day",13.7 g/dL
same,Ht,"72 h, time 3 day",41.3%
same,Lym,"72 h, time 3 day",73.2%
same,MCH,"72 h, time 3 day",21.7 pg
same,MCHC,"72 h, time 3 day",33.1%
same,MCV,"72 h, time 3 day",65.4 fL
same,Mono,"72 h, time 3 day",3.2%
same,Neu,"72 h, time 3 day",21.4%
same,PT,"72 h, time 3 day",13 s
same,Plat,"72 h, time 3 day",129.5 x10_4/uL
same,RBC,"72 h, time 3 day",632.2 x10_4/ul
same,Ret,"72 h, time 3 day",7%
same,WBC,"72 h, time 3 day",102.7 x10_2/uL
same,KIDNEY_L,"72 h, time 3 day",1 g
same,KIDNEY_R,"72 h, time 3 day",1 g
same,KIDNEY_TOTAL,"72 h, time 3 day",2 g
same,LIVER,"72 h, time 3 day",10.3 g
same,A/G,"72 h, time 3 day",0.9
same,ALP,"72 h, time 3 day",1816 IU/L
same,ALT,"72 h, time 3 day",42.4 IU/L
same,AST,"72 h, time 3 day",71 IU/L
same,BUN,"72 h, time 3 day",14 mg/dL
same,CRE,"72 h, time 3 day",0.2 mg/dL
same,Ca,"72 h, time 3 day",10.8 mg/dL
same,Cl,"72 h, time 3 day",104.2 meq/L
same,DBIL,"72 h, time 3 day",0.006 mg/dL
same,GLC,"72 h, time 3 day",173 mg/dL
same,IP,"72 h, time 3 day",7.5 mg/dL
same,K,"72 h, time 3 day",4 meq/L
same,LDH,"72 h, time 3 day",86.2 IU/L
same,Na,"72 h, time 3 day",140.6 meq/L
same,PL,"72 h, time 3 day",144.8 mg/dL
same,RALB,"72 h, time 3 day",2.6 g/dL
same,TBIL,"72 h, time 3 day",0.054 mg/dL
same,TC,"72 h, time 3 day",71.6 mg/dL
same,TG,"72 h, time 3 day",99 mg/dL
same,TP,"72 h, time 3 day",5.5 g/dL
same,gamma-GTP,"72 h, time 3 day",1 IU/L
same,TERMINAL_BW,"[…], time 7 day",273.8 g
same,TERMINAL_BW,"[…], time 14 day",316.7 g
same,TERMINAL_BW,"[…], time 28 day",390.9 g
same,APTT,"[…], time 7 day",18 s
same,Bas,"[…], time 7 day",0.2%
same,Eos,"[…], time 7 day",0.8%
same,Fbg,"[…], time 7 day",296.6 mg/dL
same,Hb,"[…], time 7 day",13.9 g/dL
same,Ht,"[…], time 7 day",41.6%
same,Lym,"[…], time 7 day",77.2%
same,MCH,"[…], time 7 day",21.3 pg
same,MCHC,"[…], time 7 day",33.3%
same,MCV,"[…], time 7 day",63.9 fL
same,Mono,"[…], time 7 day",2.6%
same,Neu,"[…], time 7 day",18.6%
same,PT,"[…], time 7 day",12.8 s
same,Plat,"[…], time 7 day",129.4 x10_4/uL
same,RBC,"[…], time 7 day",652.4 x10_4/ul
same,Ret,"[…], time 7 day",6.5%
same,WBC,"[…], time 7 day",89.4 x10_2/uL
same,APTT,"[…], time 14 day",22.2 s
same,Bas,"[…], time 14 day",0%
same,Eos,"[…], time 14 day",0.8%
same,Fbg,"[…], time 14 day",287.8 mg/dL
same,Hb,"[…], time 14 day",14.6 g/dL
same,Ht,"[…], time 14 day",43.2%
same,Lym,"[…], time 14 day",76%
same,MCH,"[…], time 14 day",20.3 pg
same,MCHC,"[…], time 14 day",33.8%
same,MCV,"[…], time 14 day",60.1 fL
same,Mono,"[…], time 14 day",2%
same,Neu,"[…], time 14 day",20%
same,PT,"[…], time 14 day",13.1 s
same,Plat,"[…], time 14 day",124.4 x10_4/uL
same,RBC,"[…], time 14 day",720 x10_4/ul
same,Ret,"[…], time 14 day",4.4%
same,WBC,"[…], time 14 day",107.6 x10_2/uL
same,APTT,"[…], time 28 day",20.5 s
same,Bas,"[…], time 28 day",0%
same,Eos,"[…], time 28 day",1.6%
same,Fbg,"[…], time 28 day",283.4 mg/dL
same,Hb,"[…], time 28 day",15.9 g/dL
same,Ht,"[…], time 28 day",45.7%
same,Lym,"[…], time 28 day",79.6%
same,MCH,"[…], time 28 day",19.9 pg
same,MCHC,"[…], time 28 day",34.8%
same,MCV,"[…], time 28 day",57.2 fL
same,Mono,"[…], time 28 day",2%
same,Neu,"[…], time 28 day",16.2%
same,PT,"[…], time 28 day",13.3 s
same,Plat,"[…], time 28 day",103.4 x10_4/uL
same,RBC,"[…], time 28 day",799.4 x10_4/ul
same,Ret,"[…], time 28 day",2.2%
same,WBC,"[…], time 28 day",93.1 x10_2/uL
same,KIDNEY_L,"[…], time 7 day",1.1 g
same,KIDNEY_R,"[…], time 7 day",1.1 g
same,KIDNEY_TOTAL,"[…], time 7 day",2.3 g
same,KIDNEY_L,"[…], time 14 day",1.1 g
same,KIDNEY_R,"[…], time 14 day",1.2 g
same,KIDNEY_TOTAL,"[…], time 14 day",2.3 g
same,KIDNEY_L,"[…], time 28 day",1.4 g
same,KIDNEY_R,"[…], time 28 day",1.3 g
same,KIDNEY_TOTAL,"[…], time 28 day",2.7 g
same,LIVER,"[…], time 7 day",13.2 g
same,LIVER,"[…], time 14 day",13.2 g
same,LIVER,"[…], time 28 day",15 g
same,A/G,"[…], time 7 day",0.8
same,ALP,"[…], time 7 day",1472.4 IU/L
same,ALT,"[…], time 7 day",38.4 IU/L
same,AST,"[…], time 7 day",66.6 IU/L
same,BUN,"[…], time 7 day",16.4 mg/dL
same,CRE,"[…], time 7 day",0.2 mg/dL
same,Ca,"[…], time 7 day",11 mg/dL
same,Cl,"[…], time 7 day",103.6 meq/L
same,DBIL,"[…], time 7 day",0.004 mg/dL
same,GLC,"[…], time 7 day",173.8 mg/dL
same,IP,"[…], time 7 day",8.1 mg/dL
same,K,"[…], time 7 day",3.8 meq/L
same,LDH,"[…], time 7 day",83.8 IU/L
same,Na,"[…], time 7 day",142.4 meq/L
same,PL,"[…], time 7 day",160.4 mg/dL
same,RALB,"[…], time 7 day",2.7 g/dL
same,TBIL,"[…], time 7 day",0.052 mg/dL
same,TC,"[…], time 7 day",83.2 mg/dL
same,TG,"[…], time 7 day",115.6 mg/dL
same,TP,"[…], time 7 day",5.8 g/dL
same,gamma-GTP,"[…], time 7 day",1 IU/L
same,A/G,"[…], time 14 day",0.8
same,ALP,"[…], time 14 day",1741.6 IU/L
same,ALT,"[…], time 14 day",42.6 IU/L
same,AST,"[…], time 14 day",72.2 IU/L
same,BUN,"[…], time 14 day",16 mg/dL
same,CRE,"[…], time 14 day",0.2 mg/dL
same,Ca,"[…], time 14 day",10.6 mg/dL
same,Cl,"[…], time 14 day",105.8 meq/L
same,DBIL,"[…], time 14 day",0.014 mg/dL
same,GLC,"[…], time 14 day",188 mg/dL
same,IP,"[…], time 14 day",6.4 mg/dL
same,K,"[…], time 14 day",4.1 meq/L
same,LDH,"[…], time 14 day",74.6 IU/L
same,Na,"[…], time 14 day",142 meq/L
same,PL,"[…], time 14 day",161.4 mg/dL
same,RALB,"[…], time 14 day",2.7 g/dL
same,TBIL,"[…], time 14 day",0.048 mg/dL
same,TC,"[…], time 14 day",74.4 mg/dL
same,TG,"[…], time 14 day",182.4 mg/dL
same,TP,"[…], time 14 day",6 g/dL
same,gamma-GTP,"[…], time 14 day",1 IU/L
same,A/G,"[…], time 28 day",0.8
same,ALP,"[…], time 28 day",1131.6 IU/L
same,ALT,"[…], time 28 day",43.4 IU/L
same,AST,"[…], time 28 day",69.6 IU/L
same,BUN,"[…], time 28 day",17.2 mg/dL
same,CRE,"[…], time 28 day",0.2 mg/dL
same,Ca,"[…], time 28 day",10.8 mg/dL
same,Cl,"[…], time 28 day",104.4 meq/L
same,DBIL,"[…], time 28 day",0.014 mg/dL
same,GLC,"[…], time 28 day",184.8 mg/dL
same,IP,"[…], time 28 day",6.4 mg/dL
same,K,"[…], time 28 day",4.2 meq/L
same,LDH,"[…], time 28 day",121 IU/L
same,Na,"[…], time 28 day",141.6 meq/L
same,PL,"[…], time 28 day",146.6 mg/dL
same,RALB,"[…], time 28 day",2.8 g/dL
same,TBIL,"[…], time 28 day",0.056 mg/dL
same,TC,"[…], time 28 day",66.8 mg/dL
same,TG,"[…], time 28 day",158.2 mg/dL
same,TP,"[…], time 28 day",6.2 g/dL
same,gamma-GTP,"[…], time 28 day",1 IU/L
